Patent US20230172929A1, “NOVEL PERIPHERAL CANNABINOID-1 RECEPTOR ANTAGONISTS” (Yissum Research Development Company of the Hebrew …, priority 2019, published 2023)
“Also recorded” adds a separate entry of the source. Where two headings read alike, the source gives them in different places.

Assays:
CB1R [1] = target: T1, CB1R (Mus musculus, UniProt P47746); assay: Radioligand binding assay, competition displacement of [3H]CP-55,940, CB1R
T1 construct: crude membranes from mouse brain for CB1R; from tissue; host or cells: mouse brain, crude membranes
T1 sequence (P47746 whole entry): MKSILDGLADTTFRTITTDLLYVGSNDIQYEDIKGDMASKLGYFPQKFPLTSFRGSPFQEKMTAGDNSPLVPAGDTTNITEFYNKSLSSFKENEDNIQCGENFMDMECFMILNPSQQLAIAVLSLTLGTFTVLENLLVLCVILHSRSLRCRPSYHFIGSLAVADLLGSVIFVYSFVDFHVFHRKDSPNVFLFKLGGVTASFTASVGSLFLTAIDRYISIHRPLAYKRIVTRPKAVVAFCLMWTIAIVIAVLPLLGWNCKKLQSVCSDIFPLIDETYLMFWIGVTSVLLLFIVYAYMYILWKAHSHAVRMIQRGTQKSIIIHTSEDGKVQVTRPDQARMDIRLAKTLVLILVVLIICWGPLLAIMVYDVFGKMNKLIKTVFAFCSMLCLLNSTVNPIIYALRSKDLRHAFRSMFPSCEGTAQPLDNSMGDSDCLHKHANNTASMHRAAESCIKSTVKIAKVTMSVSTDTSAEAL
Experimental: Radioligand binding assays: Binding to CB1R and CB2R was assessed in competition displacement assays using [3^H]CP-55,940 as the radioligand and crude membranes from mouse brain for CB1R or human cell membrane for CB2R, as reported previously. All data were in triplicates with Ki values determined from three independent experiments.
CB1R binding: The actual affinity of the 14 candidates was tested in a CB1R competitive binding assay.

CB1R [2] = target: T1, CB1R; assay: [35S]GTPγS binding, with and without CB1R agonist HU-210; assay type: biochemical; conditions: mouse brain membranes, compounds at 10 μM, with and without HU-210 (100 nM)
Experimental: [^35S]GTPγS binding: Mouse brains (CB1R) or human cell membranes (CB2R) were dissected and P2 membranes prepared and resuspended at ˜2 μg protein/μL in 1 mL assay buffer (50 mM Tris HCl, 9 mM MgCl2, 0.2 mM EGTA, 150 mM NaCl; pH 7.4). Ligand-stimulated [^35S]GTPγS binding was assayed as described previously. Briefly, membranes (10 μg protein) were incubated in assay buffer containing 100 μM GDP, 0.05 nM [^35S]GTPγS, test compounds (HU-210, CP55,940 and tested molecules) at 10 μM, and 1.4 mg/mL fatty acid-free BSA in siliconized glass tubes. Bound ligand was separated from free ligand by vacuum filtration. Non-specific binding was determined using 10 μM GTPS. Basal binding was assayed in the absence of the ligand and in the presence of GDP.
The test was performed for each compound with and without the CB1R agonist HU-210 (100 nM).

[3] = Tissue levels of antagonists (brain, serum) by LC-MS/MS; assay type: in vivo, mice; conditions: 1 hour after single dose
Experimental: Blood was collected, and the mice were perfused with phosphate buffered saline for 1 min to remove drug from the intravascular space before removing the brain and liver. Drug levels in tissue homogenates and plasma were determined by using LC-MS/MS.

mice = assay: Locomotor activity, CB1R-mediated hyperactivity; assay type: in vivo; conditions: 10 mg/kg ip
Excerpt: Locomotor Activity: Locomotor activity was quantified by the number of disruptions of infrared XYZ beam arrays with a beam spacing of 0.25 cm in the Promethion High-Definition Behavioral Phenotyping System (Sable Instruments, Inc., Las Vegas, Nev., USA).
We next tested whether the reduced brain penetrance of Compound 8/Compound 4 is associated with an attenuation of behavioral effects.

[4] = CB1R competitive binding, mouse brain membranes, [3H]CP-55,940, read-out: Ki
[5] = CB1R competitive binding, values in text, read-out: CB1R Ki
[6] = Mix (not separated), read-out: Ki (μM) Mix
[7] = separated isomer R, read-out: Ki (μM) R

In the case of `N#Cc1ccc(CC(C#N)(Cc2ccc(C#N)cc2)c2nc(-c3ccc(Cl)c(Cl)c3)cs2)cc1` [Compound 10], the Ki (CB1R [1]; [4]) is reported as 0.414 µM, the Ki (CB1R [1]; [5]) is reported as about 0.4 µM and the “activity (agonism, antagonism, inverse agonism) properties” value (CB1R [2]) is reported as “positive allosteric modulator (PAM)”.
With `CC1=C(C(=O)Nc2ccccc2C(F)(F)F)C(c2cccc(Oc3ccccc3)c2)NC(=S)N1` (centres unmarked) [Compound 2] the Ki (CB1R [1]; [4]) was 2.1 µM, the Ki (CB1R [1]; [6]) was 3.36 µM and the “activity (agonism, antagonism, inverse agonism) properties” value (CB1R [2]) was “inverse agonists”.
In the case of `Cc1ccc(NC(=S)Nc2ccc(C(C)C)cc2)c(S(=O)(=O)Nc2ccc(Cl)cc2)c1` [Compound 12], the Ki (CB1R [1]; [4]) is reported as 3.4 µM and the “activity (agonism, antagonism, inverse agonism) properties” value (CB1R [2]) is reported as “inverse agonists”.
For `CC(C)C(NC(=O)c1ccco1)C(=O)NCC(c1ccccc1Cl)c1c[nH]c2ccccc12` (single isomer, unassigned) [Compound 4-SS], the Ki (CB1R [1]; separated isomer SS, read-out: Ki (μM) SS) was 1.66 µM.
For `CC(C)C(NC(=O)c1ccco1)C(=O)NCC(c1ccccc1Cl)c1c[nH]c2ccccc12` (single isomer, unassigned) [Compound 4-RS], the Ki (CB1R [1]; separated isomer RS, read-out: Ki (μM) RS) was 8.46 µM.
With `CC(C)C(NC(=O)c1ccco1)C(=O)NCC(c1ccccc1Cl)c1c[nH]c2ccccc12` (single isomer, unassigned) [Compound 4-SR] the Ki (CB1R [1]; separated isomer SR, read-out: Ki (μM) SR) was 0.48 µM and the “brain penetrance (brain levels vs serum levels)” value ([3]; mice, 10, 20, 50 mg/kg ip) was “markedly reduced brain penetrance”.
`CC1=C(C(=O)Nc2ccccc2C(F)(F)F)C(c2cccc(Oc3ccccc3)c2)NC(=S)N1` (single isomer, unassigned) [Compound 2-S] gave a Ki (CB1R [1]; separated isomer S, read-out: Ki (μM) S) of 6.33 µM.
Compound `CC(=O)c1cccc(S(=O)(=O)NCCC(=O)NCC(c2ccccc2Cl)c2c[nH]c3ccccc23)c1` (single isomer, unassigned) [Compound 3-R] has a Ki (CB1R [1]; [7]) of 1.3 µM.
Compound `CC(NC(=O)Nc1ccccc1)C(=O)NCC(c1ccccc1Cl)c1c[nH]c2ccccc12` (centres unmarked) [Compound 7] has a Ki (CB1R [1]; [4]) of 3.9 µM.
In the case of `Cc1ccc(C(=O)C2SC(Nc3ccc(Cl)cc3)=C(C(=O)Nc3ccc(Cl)cc3)C2=N)cc1` (centres unmarked) [Compound 11], the Ki (CB1R [1]; [4]) is reported as 1.3 µM and the “activity (agonism, antagonism, inverse agonism) properties” value (CB1R [2]) is reported as “inverse agonists”.
With `CC1=C(C(=O)Nc2ccccc2C(F)(F)F)C(c2ccc(OCc3ccccc3)cc2)NC(=S)N1` (centres unmarked) [Compound 8] the Ki (CB1R [1]; [4]) was 0.408 µM, the Ki (CB1R [1]; [5]) was about 0.4 µM and the Ki (CB1R [1]; [6]) was 0.346 µM. The “activity (agonism, antagonism, inverse agonism) properties” value (CB1R [2]) was “inverse agonists” and the “brain penetrance (brain levels vs serum levels)” value ([3]; mice, 3, 10 and 30 mg/kg ip) was “markedly reduced brain penetrance”.
Work on `CC(=O)c1cccc(S(=O)(=O)NCCC(=O)NCC(c2ccccc2Cl)c2c[nH]c3ccccc23)c1` (centres unmarked) [Compound 3] yielded a Ki (CB1R [1]; [4]) of 1.8 µM and a Ki (CB1R [1]; [6]) of 1.1 µM.
For `CC(C)C(NC(=O)c1ccco1)C(=O)NCC(c1ccccc1Cl)c1c[nH]c2ccccc12` (centres unmarked) [Compound 4], the Ki (CB1R [1]; [4]) was 1.1 µM, the Ki (CB1R [1]; [6]) was 1 µM and the “activity (agonism, antagonism, inverse agonism) properties” value (CB1R [2]) was “neutral antagonism; also recorded: antagonist”.
Compound `CC(=O)Nc1ccc(C)c(S(=O)(=O)NCC(c2ccccc2Cl)c2c[nH]c3ccccc23)c1` (centres unmarked) [Compound 13] has a Ki (CB1R [1]; [4]) of 6.5 µM.
For `CC(C)C(NC(=O)c1ccco1)C(=O)NCC(c1ccccc1Cl)c1c[nH]c2ccccc12` (single isomer, unassigned) [Compound 4-RR], the Ki (CB1R [1]; separated isomer RR, read-out: Ki (μM) RR) was 0.54 µM and the “brain penetrance (brain levels vs serum levels)” value ([3]; mice, 10, 20, 50 mg/kg ip) was “markedly reduced brain penetrance”.
With `Cc1c(C(=O)NN2CCCCC2)nn(-c2ccc(Cl)cc2Cl)c1-c1ccc(Cl)cc1` [Rimonabant, reference compound] the “inducing CB1R-mediated hyperactivity (activity profile)” value (mice) was “induced a marked increase in the activity profile”.
For `CC1=C(C(=O)Nc2ccccc2C(F)(F)F)C(c2cccc(Oc3ccccc3)c2)NC(=S)N1` (single isomer, unassigned) [Compound 2-R], the Ki (CB1R [1]; [7]) was 4 µM.
For `CC(=O)NC(CC(=O)NCC(c1ccccc1Cl)c1c[nH]c2ccccc12)c1ccc(C)cc1` (centres unmarked) [Compound 14], the Ki (CB1R [1]; [4]) was 0.938 µM, the Ki (CB1R [1]; [6]) was 1.2 µM and the “activity (agonism, antagonism, inverse agonism) properties” value (CB1R [2]) was “inverse agonists”.
